{"source": "DBAASP", "assay_in_all_cases": "≥ marks a high value that may be exact or a test limit, other limits are often not marked, values filed in µg/mL are converted to µM", "key": {"[1]": {"test_system": "Escherichia coli ATCC 25922"}, "[2]": {"test_system": "Pseudomonas aeruginosa 21328"}, "[3]": {"test_system": "Pseudomonas aeruginosa 25349"}, "[4]": {"test_system": "Pseudomonas aeruginosa ATCC 27853"}, "[5]": {"test_system": "Pseudomonas aeruginosa CICC 10419"}, "[6]": {"test_system": "Pseudomonas aeruginosa CICC 11411"}, "[7]": {"test_system": "Pseudomonas aeruginosa CICC 11421"}, "[8]": {"test_system": "Pseudomonas aeruginosa CICC 11431"}, "[9]": {"test_system": "Pseudomonas aeruginosa CICC 21625"}, "[10]": {"test_system": "Pseudomonas aeruginosa CICC 21630"}, "[11]": {"test_system": "Staphylococcus aureus ATCC 29213"}, "[12]": {"test_system": "Bacillus amyloliquefaciens ATCC 23842"}, "[13]": {"test_system": "Bacillus cereus ATCC 14579"}, "[14]": {"test_system": "Bacillus licheniformis ATCC 14580"}, "[15]": {"test_system": "Bacillus subtilis ATCC 6051"}, "[16]": {"test_system": "Enterococcus faecalis 1F-1"}, "[17]": {"test_system": "Enterococcus faecium 5F-10"}, "[18]": {"test_system": "Proteus mirabilis ATCC 35659"}, "[19]": {"test_system": "Pseudomonas aeruginosa PAO1"}, "[20]": {"test_system": "Salmonella enterica ATCC H9812"}}, "data": [{"compound": "CC(C)C[C@H](NC(=O)[C@H](CCCN=C(N)N)NC(=O)[C@H](CCCN=C(N)N)NC(=O)[C@H](CC(C)C)NC(=O)[C@H](CCCN=C(N)N)NC(=O)[C@H](CCCN=C(N)N)NC(=O)[C@H](CCCN=C(N)N)NC(=O)[C@H](Cc1c[nH]c2ccccc12)NC(=O)[C@H](CCCN=C(N)N)NC(=O)[C@H](CCCN=C(N)N)NC(=O)[C@H](CCCN=C(N)N)NC(=O)[C@H](CC(C)C)NC(=O)[C@H](CCCN=C(N)N)NC(=O)[C@H](CCCN=C(N)N)NC(=O)[C@@H](N)CC(C)C)C(N)=O", "note": "[LRRLRRRWRRRLRRL]", "values": [{"measurement": "MIC", "setting": "[1]", "value": 7.21, "unit": "µM"}, {"measurement": "MIC", "setting": "[2]", "value": 14.4, "unit": "µM"}, {"measurement": "MIC", "setting": "[3]", "value": 3.61, "unit": "µM"}, {"measurement": "MIC", "setting": "[4]", "value": 7.21, "unit": "µM"}, {"measurement": "MIC", "setting": "[5]", "value": 14.4, "unit": "µM"}, {"measurement": "MIC", "setting": "[6]", "value": 14.4, "unit": "µM"}, {"measurement": "MIC", "setting": "[7]", "value": 14.4, "unit": "µM"}, {"measurement": "MIC", "setting": "[8]", "value": 7.21, "unit": "µM"}, {"measurement": "MIC", "setting": "[9]", "value": 7.21, "unit": "µM"}, {"measurement": "MIC", "setting": "[10]", "value": 7.21, "unit": "µM"}, {"measurement": "MIC", "setting": "[11]", "value": 7.21, "unit": "µM"}]}, {"compound": "CC(C)C[C@H](NC(=O)[C@H](CCCN=C(N)N)NC(=O)[C@H](CCCN=C(N)N)NC(=O)[C@H](CC(C)C)NC(=O)[C@H](CCCN=C(N)N)NC(=O)[C@H](CCCN=C(N)N)NC(=O)[C@H](CCCN=C(N)N)NC(=O)[C@H](Cc1c[nH]c2ccccc12)NC(=O)[C@H](Cc1c[nH]c2ccccc12)NC(=O)[C@H](Cc1c[nH]c2ccccc12)NC(=O)[C@H](CCCN=C(N)N)NC(=O)[C@H](CCCN=C(N)N)NC(=O)[C@H](CCCN=C(N)N)NC(=O)[C@H](CC(C)C)NC(=O)[C@H](CCCN=C(N)N)NC(=O)[C@H](CCCN=C(N)N)NC(=O)[C@@H](N)CC(C)C)C(N)=O", "note": "[LRRLRRRWWWRRRLRRL]", "values": [{"measurement": "MIC", "setting": "[1]", "value": 1.54, "unit": "µM"}, {"measurement": "MIC", "setting": "[2]", "value": 1.54, "unit": "µM"}, {"measurement": "MIC", "setting": "[3]", "value": 1.54, "unit": "µM"}, {"measurement": "MIC", "setting": "[5]", "value": 3.09, "unit": "µM"}, {"measurement": "MIC", "setting": "[6]", "value": 1.54, "unit": "µM"}, {"measurement": "MIC", "setting": "[7]", "value": 3.09, "unit": "µM"}, {"measurement": "MIC", "setting": "[8]", "value": 1.54, "unit": "µM"}, {"measurement": "MIC", "setting": "[9]", "value": 3.09, "unit": "µM"}, {"measurement": "MIC", "setting": "[10]", "value": 1.54, "unit": "µM"}, {"measurement": "MIC", "setting": "[11]", "value": 3.09, "unit": "µM"}]}, {"compound": "CC(C)C[C@H](NC(=O)[C@H](CCC(=O)O)NC(=O)[C@H](CC(=O)O)NC(=O)[C@@H](NC(=O)[C@H](CCCN=C(N)N)NC(=O)[C@H](CO)NC(=O)[C@@H](N)CC(C)C)C(C)C)C(=O)O", "note": "[LSRVDEL]", "values": [{"measurement": "MIC", "setting": "[12]", "value": "≥ 154", "unit": "µM"}, {"measurement": "MIC", "setting": "[13]", "value": "≥ 154", "unit": "µM"}, {"measurement": "MIC", "setting": "[14]", "value": "≥ 154", "unit": "µM"}, {"measurement": "MIC", "setting": "[15]", "value": "≥ 154", "unit": "µM"}, {"measurement": "MIC", "setting": "[16]", "value": "≥ 154", "unit": "µM"}, {"measurement": "MIC", "setting": "[17]", "value": "≥ 154", "unit": "µM"}, {"measurement": "MIC", "setting": "[1]", "value": "> 154", "unit": "µM"}, {"measurement": "MIC", "setting": "[18]", "value": "≥ 154", "unit": "µM"}, {"measurement": "MIC", "setting": "[19]", "value": "> 154", "unit": "µM"}, {"measurement": "MIC", "setting": "[20]", "value": "≥ 154", "unit": "µM"}, {"measurement": "MIC", "setting": "[11]", "value": "> 154", "unit": "µM"}]}, {"compound": "CC(C)C[C@H](N)C(=O)N[C@@H](CO)C(=O)N[C@@H](CCCN=C(N)N)C(=O)N[C@H](C(=O)N[C@@H](CC(=O)O)C(=O)O)C(C)C", "note": "[LSRVD]", "values": [{"measurement": "MIC", "setting": "[12]", "value": "≥ 217", "unit": "µM"}, {"measurement": "MIC", "setting": "[13]", "value": "≥ 217", "unit": "µM"}, {"measurement": "MIC", "setting": "[14]", "value": "≥ 217", "unit": "µM"}, {"measurement": "MIC", "setting": "[15]", "value": "≥ 217", "unit": "µM"}, {"measurement": "MIC", "setting": "[16]", "value": "≥ 217", "unit": "µM"}, {"measurement": "MIC", "setting": "[17]", "value": "≥ 217", "unit": "µM"}, {"measurement": "MIC", "setting": "[1]", "value": 109, "unit": "µM"}, {"measurement": "MIC", "setting": "[18]", "value": "≥ 217", "unit": "µM"}, {"measurement": "MIC", "setting": "[19]", "value": "> 217", "unit": "µM"}, {"measurement": "MIC", "setting": "[20]", "value": "≥ 109", "unit": "µM"}, {"measurement": "MIC", "setting": "[11]", "value": "> 217", "unit": "µM"}]}]}
